Laboratory results: the supplement of paper PMC10307832

Key:
Assay in all cases: relative viability (nuclei count vs DMSO), 5 days (fraction); higher = more cells survive
[1] = compound: CC1CC(=O)N(C2=CN=C(N=C2N1C3CCCC3)NC4=C(C=C(C=C4)C(=O)NC5CCN(CC5)C)OC)C [NPK76-II-72-1] + CS(=O)(=O)CCNCc1ccc(-c2ccc3ncnc(Nc4ccc(OCc5cccc(F)c5)c(Cl)c4)c3c2)o1 [Lapatinib] (partner 2 µM)
Summary of the method: (§1)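 Lung cancer cell lines were pin-tool dosed in 1536-well plates on the day after seeding, with either a lone drug or a fixed anchor-drug dose plus five library-drug doses (not always all listed) in √10 steps. Nuclei were counted on 4× images after 5 days. Relative viability is the ratio of treated-well to vehicle-well nuclei counts, with each value a median of duplicate plates.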

BI-2536 + Tozasertib = compound: CC[C@@H]1C(=O)N(C)c2cnc(Nc3ccc(C(=O)NC4CCN(C)CC4)cc3OC)nc2N1C1CCCC1 [BI-2536] + Cc1cc(Nc2cc(N3CCN(C)CC3)nc(Sc3ccc(NC(=O)C4CC4)cc3)n2)n[nH]1 [Tozasertib] (partner 0.1 µM)
Summary of the method: as §1

BI-2536 + Alpelisib = compound: CC[C@@H]1C(=O)N(C)c2cnc(Nc3ccc(C(=O)NC4CCN(C)CC4)cc3OC)nc2N1C1CCCC1 [BI-2536] + Cc1nc(NC(=O)N2CCC[C@H]2C(N)=O)sc1-c1ccnc(C(C)(C)C(F)(F)F)c1 [Alpelisib] (partner 2 µM)
Summary of the method: as §1

BI-2536 + Olaparib = compound: CC[C@@H]1C(=O)N(C)c2cnc(Nc3ccc(C(=O)NC4CCN(C)CC4)cc3OC)nc2N1C1CCCC1 [BI-2536] + O=C(c1cc(Cc2n[nH]c(=O)c3ccccc23)ccc1F)N1CCN(C(=O)C2CC2)CC1 [Olaparib] (partner 8 µM)
Summary of the method: as §1

Cell Line | relative viability ([1]; first compound 0.01 µM) | relative viability ([1]; first compound 0.03162 µM) | relative viability ([1]; first compound 0.1 µM) | relative viability ([1]; first compound 0.3162 µM) | relative viability ([1]; first compound 1 µM) | relative viability (BI-2536 + Tozasertib; first compound 0.01 µM) | relative viability (BI-2536 + Tozasertib; first compound 0.03162 µM) | relative viability (BI-2536 + Tozasertib; first compound 0.1 µM) | relative viability (BI-2536 + Tozasertib; first compound 0.3162 µM) | relative viability (BI-2536 + Tozasertib; first compound 1 µM) | relative viability (BI-2536 + Alpelisib; first compound 0.01 µM) | relative viability (BI-2536 + Alpelisib; first compound 0.03162 µM) | relative viability (BI-2536 + Alpelisib; first compound 0.1 µM) | relative viability (BI-2536 + Alpelisib; first compound 0.3162 µM) | relative viability (BI-2536 + Alpelisib; first compound 1 µM) | relative viability (BI-2536 + Olaparib; first compound 0.01 µM) | relative viability (BI-2536 + Olaparib; first compound 0.03162 µM) | relative viability (BI-2536 + Olaparib; first compound 0.1 µM) | relative viability (BI-2536 + Olaparib; first compound 0.3162 µM) | relative viability (BI-2536 + Olaparib; first compound 1 µM)
PC-14 | 0.321 | 0.269 | 0.28 | 0.301 | 0.338 | 0.577 | 0.568 | 0.548 | 0.045 | 0.0586 | 0.951 | 0.891 | 0.877 | 0.0726 | 0.0642 | 0.258 | 0.155 | 0.0592 | 0.0538 | 0.0392
RERF-LC-KJ | 0.818 | 0.869 | 0.841 | 0.818 | 0.979 | 0.496 | 0.405 | 0.275 | 0.224 | 0.226 | 0.697 | 0.724 | 0.675 | 0.195 | 0.208 | 0.901 | 0.571 | 0.24 | 0.201 | 0.223
SK-LU-1 | 0.897 | 0.867 | 0.96 | 0.776 | 1.08 | 0.323 | 0.317 | 0.323 | 0.218 | 0.176 | 1.03 | 0.507 | 0.317 | 0.28 | 0.244 | 0.418 | 0.503 | 0.302 | 0.179 | 0.167
SK-MES-1 | 0.447 | 0.449 | 0.426 | 0.419 | 0.465 | 0.956 | 0.801 | 0.191 | 0.151 | 0.172 | 0.869 | 0.957 | 0.786 | 0.147 | 0.186 | 0.72 | 0.656 | 0.199 | 0.165 | 0.177
SW 1573 | 1.03 | 1.09 | 1.04 | 1 | 1.16 | 0.192 | 0.166 | 0.159 | 0.127 | 0.121 | 0.821 | 0.842 | 0.791 | 0.162 | 0.123 | 0.446 | 0.266 | 0.12 | 0.1 | 0.0718
